Results: patent US5290689A, “New cyclic FR-900520 microbial biotransformation agent” (Merck & Co., Inc., priority 1992, dated 1994)
“Also recorded” adds a separate entry of the source.

Legend:
[1] = tested on: mouse T lymphocytes (Splenic T-cells stimulated with ionomycin + PMA); assay: T-cell proliferation assay (ionomycin + PMA stimulated, tritiated thymidine uptake); type: cell-based, mouse (C57B1/6)
Experimental: The principle of this assay is to measure the proliferation of mouse T lymphocytes stimulated with the combination of ionomycin plus PMA. A positive sample, e.g. FK-506, in this assay will inhibit T-cell proliferation, as indicated by reduced tritiated thymidine uptake.
T-Cell Proliferation Assay
Purified Compound I, as prepared by HPLC above, was dissolved in absolute ethanol at 1 mg/ml.
Spleens from C57B1/6 mice were taken under sterile conditions and gently dissociated in ice-cold RPMI 1640 culture medium (GIBCO, Grand Island, N.Y.) supplemented with 10% heat-inactivated fetal calf serum (GIBCO). Cells were pelleted by centrifugation at 1500 rpm for 8 minutes. Contaminating red cells were removed by treating the pellet with ammonium chloride lysing buffer (GIBCO) for 2 minutes at 4° C. […]
Purified T lymphocytes were resuspended at 2.5×10^5 cells/ml in complete culture medium composed of RPMI 1640 medium with 10% heat-inactivated fetal calf serum, […], 1 mM sodium pyruvate, 2×10^-5 M 2-mercaptoethanol and 50 μg/ml gentamycin. […] Radioactivity of filter discs corresponding to individual wells was measured by standard liquid scintillation counting methods (Betacounter). Mean counts per minute of replicate wells were calculated and the results expressed as percent inhibition of tritiated thymidine uptake (proliferation) as follows: [formula] […]

[2] = reputed; EPO Publication No. 0184162; cited from earlier work

Row | SMILES | Inhibition of T-cell proliferation on addition of IL2 ([1]; 50 units/ml recombinant IL2 added at the initiation of culture) | immunosuppressant activity (inhibition of T-cell activation) ([1]; qualitative) | effectiveness as immunosuppressant relative to cyclosporin [2]
1 | CC[C@@H]1C=C2COC1(O)C[C@H](O)[C@@H](C)[C@@H](/C(C)=C/[C@@H]1CC[C@@H](O)[C@H](OC)C1)OC(=O)[C@@H]1CCCCN1C(=O)C(=O)[C@]1(O)O[C@H]([C@@H](OC)C[C@@H](C)C2)[C@@H](OC)C[C@H]1C [Compound I] | reversed | positive inhibition of T-cell activation; also recorded: positive immunosuppressive activity | 
2 | C=CC[C@@H]1/C=C(\C)C[C@H](C)C[C@H](OC)[C@H]2O[C@@](O)(C(=O)C(=O)N3CCCC[C@H]3C(=O)O[C@H](/C(C)=C/[C@@H]3CC[C@@H](O)[C@H](OC)C3)[C@H](C)[C@@H](O)CC1=O)[C@H](C)C[C@@H]2OC [FK-506] |  |  | 100 times
